# Assay results from patent US20230019491A1, “PYRIMIDINE TBK/IKKe INHIBITOR COMPOUNDS AND USES THEREOF” (Merck Patent GmbH, priority 2017, published 2023).
# Columns and labels:
# TBK1 = target: T1, TBK1 (Homo sapiens, UniProt Q9UHD2); test: TBK biochemical assay; details: 10 point 1:4 dose response, 30 uM top concentration, 90 min at 25° C., LabChip EZ Reader II; read-out: TBK1_IC50
# T1 sequence (Q9UHD2 1-729): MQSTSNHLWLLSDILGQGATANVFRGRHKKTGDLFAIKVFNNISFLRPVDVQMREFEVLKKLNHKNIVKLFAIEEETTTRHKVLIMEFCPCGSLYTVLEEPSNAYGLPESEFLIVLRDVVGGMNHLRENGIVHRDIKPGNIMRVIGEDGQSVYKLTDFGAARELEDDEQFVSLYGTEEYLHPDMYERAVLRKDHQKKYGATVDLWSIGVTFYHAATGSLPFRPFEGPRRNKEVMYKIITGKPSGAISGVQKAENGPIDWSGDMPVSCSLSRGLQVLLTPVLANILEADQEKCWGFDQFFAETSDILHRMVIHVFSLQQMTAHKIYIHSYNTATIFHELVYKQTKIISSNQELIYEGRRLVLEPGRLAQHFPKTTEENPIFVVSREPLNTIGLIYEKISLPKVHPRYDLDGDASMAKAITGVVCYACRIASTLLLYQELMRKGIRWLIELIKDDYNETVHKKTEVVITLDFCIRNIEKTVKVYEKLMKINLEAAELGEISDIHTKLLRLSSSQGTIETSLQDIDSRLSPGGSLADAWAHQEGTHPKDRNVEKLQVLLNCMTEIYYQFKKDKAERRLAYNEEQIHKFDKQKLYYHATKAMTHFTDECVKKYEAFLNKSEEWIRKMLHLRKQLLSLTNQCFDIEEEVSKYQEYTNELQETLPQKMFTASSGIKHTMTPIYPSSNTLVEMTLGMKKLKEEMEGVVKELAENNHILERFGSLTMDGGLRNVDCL
# Procedure, shortened: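 Substrate and product were separated and quantified by microfluidic mobility-shift read (LabChip). 10 uM staurosporine served as the full-inhibition control, and the reference compound was tested from 1 uM final.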
# IKKε = target: T2, IKKε (Homo sapiens, UniProt Q14164); test: IKKε biochemical assay; details: 10 point 1:4 dose response, 30 uM top concentration, 90 min at 25° C., LabChip EZ Reader II; read-out: IKKε_IC50
# T2 sequence (Q14164 1-716): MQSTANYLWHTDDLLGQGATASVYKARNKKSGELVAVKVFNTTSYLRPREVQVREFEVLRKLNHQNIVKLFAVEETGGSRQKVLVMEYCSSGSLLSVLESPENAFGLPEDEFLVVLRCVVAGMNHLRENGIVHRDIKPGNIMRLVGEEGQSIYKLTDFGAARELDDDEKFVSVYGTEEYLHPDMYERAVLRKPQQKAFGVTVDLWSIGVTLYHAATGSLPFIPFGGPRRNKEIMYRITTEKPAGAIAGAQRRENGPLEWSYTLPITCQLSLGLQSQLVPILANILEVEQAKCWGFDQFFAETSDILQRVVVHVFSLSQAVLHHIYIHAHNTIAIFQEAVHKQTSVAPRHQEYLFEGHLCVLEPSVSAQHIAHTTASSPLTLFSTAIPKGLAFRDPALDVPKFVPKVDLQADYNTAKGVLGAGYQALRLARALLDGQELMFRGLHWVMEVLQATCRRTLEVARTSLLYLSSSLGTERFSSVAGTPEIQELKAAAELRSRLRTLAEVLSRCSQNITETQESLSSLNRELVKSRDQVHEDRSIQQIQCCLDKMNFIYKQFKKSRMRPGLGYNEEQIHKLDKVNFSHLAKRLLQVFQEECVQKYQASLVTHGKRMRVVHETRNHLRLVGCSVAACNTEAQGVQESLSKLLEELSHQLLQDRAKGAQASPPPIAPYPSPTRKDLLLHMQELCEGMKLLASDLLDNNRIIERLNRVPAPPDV
# Procedure, shortened: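 Compounds in 1% DMSO final were incubated with IKKε enzyme and substrate at 25° C. for 90 min, then stopped. Substrate and product peaks were resolved by LabChip EZ Reader II mobility-shift read-out. Staurosporine at 10 uM final served as the full-inhibition control.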
SMILES,IC50 (TBK1),IC50 (IKKε)
"COc1nc(Nc2nccc(-c3ccc(O[C@@H]4CCN(C(=O)[C@H](C)O)C[C@@H]4F)c(C#N)c3)n2)ccc1N1CCN(C2COC2)CC1 [Example 118, 2-[(3S,4R)-3-Fluoro-1-((S)-2-hydroxy-propionyl)-piperidin-4-yloxy]-5-{2-[6-methoxy-5-(4-oxetan-3-yl-piperazin-1-yl)-pyridin-2-ylamino]-pyrimidin-4-yl}-benzonitrile]",< 100 nM,< 100 nM
COc1nc(Nc2nccc(-c3ccc(OC4CCNCC4(F)F)c(C#N)c3)n2)ccc1N1CCN(C2COC2)CC1 (stereo not shown) [Example 119],< 100 nM,< 100 nM
"COc1nc(Nc2nccc(-c3ccc(O[C@H]4CCN(C(=O)[C@H](C)O)CC4(F)F)c(C#N)c3)n2)ccc1N1CCN(C2COC2)CC1 [Example 120, 2-([3,3-difluoro-1-[(2S)-2-hydroxypropanoyl]piperidin-4-yl]oxy)-5-[2-([6-methoxy-5-[4-(oxetan-3-yl)piperazin-1-yl]pyridin-2-yl]amino)pyrimidin-4-yl]benzonitrile]",< 100 nM,< 100 nM
"COc1nc(Nc2nccc(-c3ccc(O[C@@H]4CCN(C(=O)[C@H](C)O)CC4(F)F)c(C#N)c3)n2)ccc1N1CCN(C2COC2)CC1 [Example 122, 2-[[(4R)-3,3-difluoro-1-[(2S)-2-hydroxypropanoyl]piperidin-4-yl]oxy]-5-[2-([6-methoxy-5-[4-(oxetan-3-yl)piperazin-1-yl]pyridin-2-yl]amino)pyrimidin-4-yl]benzonitrile]",< 100 nM,< 100 nM
"COc1nc(Nc2nccc(-c3ccc(OC4CCNCC4(F)F)c(C#N)c3)n2)ccc1N1CCN(C2COC2)[C@@H](C)C1 (stereo partly drawn) [Example 123, 2-(3,3-Difluoro-piperidin-4-yloxy)-5-{2-[6-methoxy-5-((S)-3-methyl-4-oxetan-3-yl-piperazin-1-yl)-pyridin-2-ylamino]-pyrimidin-4-yl}-benzonitrile]",< 100 nM,< 100 nM
"COc1nc(Nc2nccc(-c3ccc(OC4CCNCC4(F)F)c(C#N)c3)n2)ccc1N1CCN(C2COC2)[C@H](C)C1 (stereo partly drawn) [Example 124, 2-(3,3-Difluoro-piperidin-4-yloxy)-5-{2-[6-methoxy-5-((R)-3-methyl-4-oxetan-3-yl-piperazin-1-yl)-pyridin-2-ylamino]-pyrimidin-4-yl}-benzonitrile]",< 100 nM,< 100 nM
"COc1nc(Nc2nccc(-c3ccc(OC4CCN(C(=O)[C@@H](C)O)CC4(F)F)c(C#N)c3)n2)ccc1N1CCN(C2COC2)[C@@H](C)C1 (stereo partly drawn) [Example 125, 2-[3,3-Difluoro-1-((R)-2-hydroxy-propionyl)-piperidin-4-yloxy]-5-{2-[6-methoxy-5-((S)-3-methyl-4-oxetan-3-yl-piperazin-1-yl)-pyridin-2-ylamino]-pyrimidin-4-yl}-benzonitrile]",< 100 nM,< 100 nM
"COc1nc(Nc2nccc(-c3ccc(OC4CCN(C(=O)[C@@H](C)O)CC4(F)F)c(C#N)c3)n2)ccc1N1CCN(C2COC2)[C@H](C)C1 (stereo partly drawn) [Example 126, 2-[3,3-Difluoro-1-((R)-2-hydroxy-propionyl)-piperidin-4-yloxy]-5-{2-[6-methoxy-5-((R)-3-methyl-4-oxetan-3-yl-piperazin-1-yl)-pyridin-2-ylamino]-pyrimidin-4-yl}-benzonitrile]",< 100 nM,< 100 nM
"COc1nc(Nc2nccc(-c3ccc(OC4CCN(C(=O)[C@H](C)O)CC4(F)F)c(C#N)c3)n2)ccc1N1CCN(C2COC2)[C@@H](C)C1 (stereo partly drawn) [Example 127, 2-[3,3-Difluoro-1-((S)-2-hydroxy-propionyl)-piperidin-4-yloxy]-5-{2-[6-methoxy-5-((S)-3-methyl-4-oxetan-3-yl-piperazin-1-yl)-pyridin-2-ylamino]-pyrimidin-4-yl}-benzonitrile]",< 100 nM,< 100 nM
"COc1nc(Nc2nccc(-c3ccc(OC4CCN(C(=O)[C@H](C)O)CC4(F)F)c(C#N)c3)n2)ccc1N1CCN(C2COC2)[C@H](C)C1 (stereo partly drawn) [Example 128, 2-[3,3-Difluoro-1-((S)-2-hydroxy-propionyl)-piperidin-4-yloxy]-5-{2-[6-methoxy-5-((R)-3-methyl-4-oxetan-3-yl-piperazin-1-yl)-pyridin-2-ylamino]-pyrimidin-4-yl}-benzonitrile]",< 100 nM,< 100 nM
"COc1nc(Nc2nccc(-c3ccc(OC4CCNCC4(F)F)c(C#N)c3)n2)ccc1N1CCN(C2COC2)C[C@H]1C (stereo partly drawn) [Example 129, 2-(3,3-Difluoro-piperidin-4-yloxy)-5-{2-[6-methoxy-5-((R)-2-methyl-4-oxetan-3-yl-piperazin-1-yl)-pyridin-2-ylamino]-pyrimidin-4-yl}-benzonitrile]",< 100 nM,< 100 nM
"COc1nc(Nc2nccc(-c3ccc(OC4CCN(C(=O)[C@@H](C)O)CC4(F)F)c(C#N)c3)n2)ccc1N1CCN(C2COC2)C[C@H]1C (stereo partly drawn) [Example 130, 2-[3,3-Difluoro-1-((R)-2-hydroxy-propionyl)-piperidin-4-yloxy]-5-{2-[6-methoxy-5-((R)-2-methyl-4-oxetan-3-yl-piperazin-1-yl)-pyridin-2-ylamino]-pyrimidin-4-yl}-benzonitrile]",< 100 nM,< 100 nM

# Further lines, results first:
IC50 (TBK1),IC50 (IKKε),SMILES
< 100 nM,< 100 nM,"COc1nc(Nc2nccc(-c3ccc(OC4CCN(C(=O)[C@H](C)O)CC4(F)F)c(C#N)c3)n2)ccc1N1CCN(C2COC2)C[C@@H]1C (stereo partly drawn) [Example 131, 2-[3,3-Difluoro-1-((S)-2-hydroxy-propionyl)-piperidin-4-yloxy]-5-{2-[6-methoxy-5-((S)-2-methyl-4-oxetan-3-yl-piperazin-1-yl)-pyridin-2-ylamino]-pyrimidin-4-yl}-benzonitrile]"
< 100 nM,< 100 nM,"COc1nc(Nc2nccc(-c3ccc(OC4CCN(C(=O)[C@H](C)O)CC4(F)F)c(C#N)c3)n2)ccc1N1CCN(C2COC2)C[C@H]1C (stereo partly drawn) [Example 132, 2-[3,3-Difluoro-1-((S)-2-hydroxy-propionyl)-piperidin-4-yloxy]-5-{2-[6-methoxy-5-((R)-2-methyl-4-oxetan-3-yl-piperazin-1-yl)-pyridin-2-ylamino]-pyrimidin-4-yl}-benzonitrile]"
< 100 nM,< 100 nM,"COc1nc(Nc2nccc(-c3ccc(OC4CCN(C(=O)[C@@H](O)CO)CC4(F)F)c(C#N)c3)n2)ccc1N1CCN(C2COC2)C[C@H]1C (stereo partly drawn) [Example 133, 2-[1-((S)-2,3-Dihydroxy-propionyl)-3,3-difluoro-piperidin-4-yloxy]-5-{2-[6-methoxy-5-((R)-2-methyl-4-oxetan-3-yl-piperazin-1-yl)-pyridin-2-ylamino]-pyrimidin-4-yl}-benzonitrile]"
< 100 nM,< 100 nM,"N#Cc1cc(-c2ccnc(Nc3ccc(N4CCN(C5CC5)CC4)cc3)n2)ccc1OC1CCOCC1 [Example 134, 5-{2-[4-(4-Cyclopropyl-piperazin-1-yl)-phenylamino]-pyrimidin-4-yl}-2-(tetrahydro-pyran-4-yloxy)-benzonitrile]"
< 100 nM,< 100 nM,"N#Cc1cc(-c2ccnc(Nc3ccc(N4CCN(C5COC5)CC4)cc3)n2)ccc1OC1CCOCC1 [Example 135, 2-(oxan-4-yloxy)-5-[2-([4-[4-(oxetan-3-yl)piperazin-1-yl]phenyl]amino)pyrimidin-4-yl]benzonitrile]"
